Source: ChEMBL document CHEMBL1201862, “PubChem BioAssay data set” (2004)
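Tested at 5 concentrations; 48 h exposure; 96-well plates; endpoints linearly interpolated, else capped at highest concentration. GI50 marks 50% less growth.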 Active and inactive are the calls of the source. No stated cut-off is given here; in the data, active = GI50 up to about 1.1 µM and inactive = higher.

Columns and labels:
Test in all cases: growth of human tumour cells (NCI), 48 h
[1] = tested on: U-251
[2] = tested on: COLO 205
[3] = tested on: SN12C
[4] = tested on: HOP-62
[5] = tested on: NCI-H226
[6] = tested on: UACC-62
[7] = tested on: SR
[8] = tested on: ACHN
[9] = tested on: SNB-19
[10] = tested on: MOLT-4
[11] = tested on: SK-MEL-2
[12] = tested on: HCT-116
[13] = tested on: SK-MEL-28
[14] = tested on: CCRF-CEM
[15] = tested on: HL-60
[16] = tested on: RPMI-8226
[17] = tested on: Malme-3M
[18] = tested on: NCI-H460
[19] = tested on: M14
[20] = tested on: UACC-257

CC1=NN(c2nc(N)nc(-c3cc4ccccc4oc3=N)n2)C(C)(C)C1
GI50 [1]: 27 µM (inactive) | GI50 [2]: 17 µM (inactive) | GI50 [3]: 19.5 µM (inactive) | GI50 [4]: 21.4 µM (inactive) | GI50 [5]: 14.7 µM (inactive) | GI50 [6]: 16.2 µM (inactive) | GI50 [7]: 19.6 µM (inactive) | GI50 [8]: 19 µM (inactive) | GI50 [9]: 32.7 µM (inactive) | GI50 [10]: 12.9 µM (inactive) | GI50 [11]: 20 µM (inactive) | GI50 [12]: 19.6 µM (inactive) | GI50 [13]: 16.5 µM (inactive) | GI50 [14]: 20.7 µM (inactive) | GI50 [15]: 18.2 µM (inactive) | GI50 [16]: 19.6 µM (inactive) | GI50 [17]: 17.5 µM (inactive) | GI50 [18]: 17.3 µM (inactive) | GI50 [19]: 20.6 µM (inactive) | GI50 [20]: 16.7 µM (inactive)

Cc1cc(O)cc(O)c1C(=O)O[C@]1(C)C(=O)C=C2C=C(/C=C/C(=O)O)OC=C2C1=O
GI50 [2]: > 100 µM (inactive) | GI50 [3]: > 100 µM (inactive) | GI50 [4]: > 100 µM (inactive) | GI50 [5]: > 100 µM (inactive) | GI50 [6]: > 100 µM (inactive) | GI50 [7]: 42.2 µM (inactive) | GI50 [8]: > 100 µM (inactive) | GI50 [9]: > 100 µM (inactive) | GI50 [10]: 60.8 µM (inactive) | GI50 [11]: > 100 µM (inactive) | GI50 [12]: 76.9 µM (inactive) | GI50 [13]: > 100 µM (inactive) | GI50 [14]: 38.5 µM (inactive) | GI50 [15]: 31.9 µM (inactive) | GI50 [16]: > 100 µM (inactive) | GI50 [17]: 67.3 µM (inactive) | GI50 [18]: > 100 µM (inactive) | GI50 [19]: > 100 µM (inactive) | GI50 [20]: > 100 µM (inactive)

O=C1C(CO)=C(CO)C(=O)c2c(O)ccc(O)c21
GI50 [1]: 2.22 µM (inactive) | GI50 [2]: 0.0408 µM (active) | GI50 [3]: 0.287 µM (active) | GI50 [4]: 1.04 µM (active) | GI50 [5]: 2.15 µM (inactive) | GI50 [6]: 0.782 µM (active) | GI50 [7]: 0.0902 µM (active) | GI50 [8]: 0.337 µM (active) | GI50 [9]: 2.88 µM (inactive) | GI50 [10]: 0.0497 µM (active) | GI50 [11]: 1.05 µM (active) | GI50 [12]: 0.218 µM (active) | GI50 [13]: 0.391 µM (active) | GI50 [14]: 0.0575 µM (active) | GI50 [15]: 0.043 µM (active) | GI50 [16]: 0.117 µM (active) | GI50 [17]: 0.217 µM (active) | GI50 [18]: 0.923 µM (active) | GI50 [19]: 0.143 µM (active) | GI50 [20]: 0.349 µM (active)

CC(C)(C)C(=O)Cc1cc2c(cc1C(=O)O)S(=O)(=O)NC(C(C)(C)C)=C2
GI50 [1]: > 100 µM (inactive) | GI50 [2]: > 100 µM (inactive) | GI50 [3]: > 100 µM (inactive) | GI50 [4]: > 100 µM (inactive) | GI50 [5]: > 100 µM (inactive) | GI50 [6]: > 100 µM (inactive) | GI50 [7]: > 100 µM (inactive) | GI50 [8]: > 100 µM (inactive) | GI50 [9]: > 100 µM (inactive) | GI50 [10]: > 100 µM (inactive) | GI50 [11]: > 100 µM (inactive) | GI50 [12]: > 100 µM (inactive) | GI50 [13]: > 100 µM (inactive) | GI50 [14]: > 100 µM (inactive) | GI50 [15]: > 100 µM (inactive) | GI50 [16]: > 100 µM (inactive) | GI50 [17]: > 100 µM (inactive) | GI50 [18]: > 100 µM (inactive) | GI50 [19]: > 100 µM (inactive) | GI50 [20]: > 100 µM (inactive)

COc1ccc(C2S/C(=C\c3cc(OC)c(OC)c(OC)c3)C(=O)N2NC(=O)Cc2ccccc2)cc1 (stereo unspecified)
GI50 [1]: > 100 µM (inactive) | GI50 [2]: > 100 µM (inactive) | GI50 [3]: > 100 µM (inactive) | GI50 [4]: > 100 µM (inactive) | GI50 [5]: > 100 µM (inactive) | GI50 [6]: > 100 µM (inactive) | GI50 [7]: > 100 µM (inactive) | GI50 [8]: > 100 µM (inactive) | GI50 [10]: 44.3 µM (inactive) | GI50 [11]: > 100 µM (inactive) | GI50 [12]: 89.9 µM (inactive) | GI50 [13]: > 100 µM (inactive) | GI50 [14]: > 100 µM (inactive) | GI50 [15]: > 100 µM (inactive) | GI50 [16]: > 100 µM (inactive) | GI50 [17]: > 100 µM (inactive) | GI50 [18]: > 100 µM (inactive) | GI50 [19]: > 100 µM (inactive) | GI50 [20]: 76.6 µM (inactive)

COc1ccc(-c2c(N)n(-c3nc4ccccc4s3)c(=O)c3cc([N+](=O)[O-])ccc23)cc1
GI50 [1]: 7.6 µM (inactive) | GI50 [4]: 14 µM (inactive) | GI50 [5]: 37.3 µM (inactive) | GI50 [6]: > 100 µM (inactive) | GI50 [7]: 8.39 µM (inactive) | GI50 [8]: 22 µM (inactive) | GI50 [9]: 40.1 µM (inactive) | GI50 [10]: 3.18 µM (inactive) | GI50 [11]: 25.4 µM (inactive) | GI50 [12]: 20.1 µM (inactive) | GI50 [13]: > 100 µM (inactive) | GI50 [14]: 4.44 µM (inactive) | GI50 [15]: 99.8 µM (inactive) | GI50 [16]: 1.81 µM (inactive) | GI50 [17]: 20.7 µM (inactive) | GI50 [18]: 3.69 µM (inactive) | GI50 [19]: 17.8 µM (inactive) | GI50 [20]: 67.8 µM (inactive)
